Test results from patent publication US12552771B2, “Carboxylic acid containing azetidinyl compounds for the treatment of neurodegenerative diseases” (Celgene Corporation, priority 2021, dated 2026).
pEC50: −log10 of the molar value.

Target: T1, S1P5 receptors (Homo sapiens, UniProt Q9H228)
T1 construct: expressed in transfected cells; host or cells: CHO cells (membranes)
Experiment: [35S]-GTPγS binding assay with CHO-S1P5 receptor membranes
Format: biochemical
Conditions: membranes of CHO cells expressing recombinant S1P5 receptors; measure of S1P5 agonism
Description: CHO cells expressing recombinant S1P5 receptors were cultured in 500 cm^2 culture trays and, once confluent, rinsed and detached with cell-lifting buffer (10 mM HEPES, 154 mM NaCl, 6.85 mM EDTA, pH 7.4). Cells were then pelleted by centrifugation, resuspended, and homogenized in membrane preparation buffer (10 mM HEPES and 10 mM EDTA, pH 7.4) using a Polytron PT 1200E homogenizer (Kinematica, Luzern, Switzerland). Cellular proteins were pelleted by centrifugation at 48,000×g at 4° C. for 30 minutes. The resulting supernatant was discarded, and the pellet was re-suspended again in membrane preparation buffer, homogenized for a second time, and then centrifuged again as described above. The final cellular protein pellet was suspended in ice cold resuspension buffer (10 mM HEPES and 0.1 mM EDTA, pH 7.4), divided into aliquots, and stored at −80° C. until use.
Functional binding assays for [^35]-GTPγS were performed in 96-well non-binding surface plates with a final volume of 200 μL. The test compounds were serially diluted in DMSO and added to assay plates using a Tecan D300E digital printer with a total volume of […]. The control sphingosine-1-phosphate (SiP) was prepared separately by preparing a 400 μM stock solution from a 100 nmol pellet of SiP in 10 mM Na2CO3 with 2% […]. The serial dilution of SiP was done using complete assay buffer (20 mM HEPES, 10 mM MgCl2, 100 mM NaCl, 1 mM EDTA, 0.1% fatty acid free bovine serum albumin (BSA), and 30 μg/mL saponin, pH 7.4) and transferred to wells already containing 0.4 μL DMSO. All the wells were then loaded to a total volume of 40 μL of complete assay buffer, except the non-specific binding (NSB) wells. For NSB wells, 40 μL/well of 50 μM GTPγS (Sigma Aldrich, cat #G8634, St. Louis, MO) was added to wells containing 0.4 μL of DMSO. The assay was started by the addition of 120 μL/well of CHO-S1P receptor membrane solution containing 40 μg/mL of membrane protein, 16.67 μM guanosine diphosphate (GDP; Sigma Aldrich, cat #G7127, St. Louis, MO), and 2.5 mg/mL of WGA PVT SPA beads in complete buffer. Assay plates were then sealed and incubated at room temperature with gentle agitation for 30 minutes. Next, 40 μL/well of 1 nM of [^35]-GTPγS (PerkinElmer, cat #NEG030X250UC, Waltham, MA) in basic assay buffer (20 mM HEPES, 10 mM MgCl2, 100 mM NaCl, and 1 mM EDTA, pH7.4) was added to the assay plates to yield a final concentration of 200 pM and the plates were further incubated for 40 minutes at room temperature with gentle agitation. The assay was terminated by centrifugation of the plates at 1000 rpm for 3 minutes using an Eppendorf 5810R centrifuge (Eppendorf, Hamburg, Germany) and G protein bound radioactivity was quantitated using a MicroBeta2 microplate scintillation counter (PerkinElmer, Waltham, MA). As G protein bound radioactivity directly correlates to receptor activation and coupling to the G protein, this assay is a measure of S1P5 agonism.

T1 sequence (Q9H228 whole entry): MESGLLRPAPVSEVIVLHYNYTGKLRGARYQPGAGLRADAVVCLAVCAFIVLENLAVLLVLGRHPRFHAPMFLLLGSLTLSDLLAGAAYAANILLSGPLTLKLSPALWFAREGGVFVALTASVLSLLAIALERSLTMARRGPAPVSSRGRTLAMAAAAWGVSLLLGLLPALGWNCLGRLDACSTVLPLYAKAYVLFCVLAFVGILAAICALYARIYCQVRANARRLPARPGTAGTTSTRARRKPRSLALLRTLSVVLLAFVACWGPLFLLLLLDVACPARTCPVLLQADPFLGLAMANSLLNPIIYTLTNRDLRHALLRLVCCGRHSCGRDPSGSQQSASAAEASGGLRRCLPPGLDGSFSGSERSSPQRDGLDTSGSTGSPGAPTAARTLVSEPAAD

`Cc1cc(C2CN(c3c(Cl)cccc3Cl)C2)cc2c1C(N1CCC(C(=O)O)CC1)CC2` (racemic) [Compound 5, 1-(5-(1-(2,6-dichlorophenyl)azetidin-3-yl)-7-methyl-2,3-dihydro-1H-inden-1-yl)piperidine-4-carboxylic acid] and `O=C(O)C1CCN(C2CCc3cc(C4CN(c5c(Cl)cccc5Cl)C4)cc(F)c32)CC1` (racemic) [Compound 6, 1-(5-(1-(2,6-dichlorophenyl)azetidin-3-yl)-7-fluoro-2,3-dihydro-1H-inden-1-yl)piperidine-4-carboxylic acid] cannot be ordered by pEC50: at least 8.00 for the first, at least 8.00 for the second.

`O=C(O)C1CCN(C2CCc3cc(C4CN(c5c(Cl)cccc5Cl)C4)ccc32)CC1` (single isomer, unassigned) [Compound 1a, 1-(5-(1-(2,6-dichlorophenyl)azetidin-3-yl)-2,3-dihydro-1H-inden-1-yl)piperidine-4-carboxylic acid] and `O=C(O)C1CCN(C2CCc3cc(C4CN(c5c(Cl)cccc5Cl)C4)ccc32)C1` (stereo not drawn) [Compound 7, 1-(5-(1-(2,6-dichlorophenyl)azetidin-3-yl)-2,3-dihydro-1H-inden-1-yl)pyrrolidine-3-carboxylic acid] cannot be ordered by pEC50: at least 8.00 for the first, at least 8.00 for the second.

Compared with `O=C(O)C1CCN(C2CCc3cc(C4CN(c5c(Cl)cccc5Cl)C4)ccc32)CC1` (single isomer, unassigned) [Compound 1b, 1-(5-(1-(2,6-dichlorophenyl)azetidin-3-yl)-2,3-dihydro-1H-inden-1-yl)piperidine-4-carboxylic acid], `O=C(O)C1CCN(C2CCc3cc(C4CN(c5c(F)cccc5F)C4)ccc32)CC1` (single isomer, unassigned) [Compound 2a, 1-(5-(1-(2,6-difluorophenyl)azetidin-3-yl)-2,3-dihydro-1H-inden-1-yl)-piperidine-4-carboxylic acid] is higher in pEC50: 6.00 to 7.00 for the first, 7.00 to 8.00 for the second. The second is the more potent here.

First: O=C(O)C1CCN(C2CCc3cc(C4CN(c5c(F)cccc5F)C4)ccc32)CC1 (single isomer, unassigned) [Compound 2b, 1-(5-(1-(2,6-difluorophenyl)azetidin-3-yl)-2,3-dihydro-1H-inden-1-yl)-piperidine-4-carboxylic acid]
Second: O=C(O)C1CCN(C2CCc3cc(N4CC(c5c(F)cccc5F)C4)ccc32)CC1 (single isomer, unassigned) [Compound 9a, 1-(5-(3-(2,6-difluorophenyl)azetidin-1-yl)-2,3-dihydro-1H-inden-1-yl)piperidine-4-carboxylic acid]
The pEC50 of the first is lower: 5.00 to 6.00 for the first, at least 8.00 for the second. The second is the more potent here.

Compared with `O=C(O)C1CCN(C2CCc3cc(C4CN(c5cccc(F)c5)C4)ccc32)CC1` (single isomer, unassigned) [Compound 3a, 1-(5-(1-(3-fluorophenyl)azetidin-3-yl)-2,3-dihydro-1H-inden-1-yl)piperidine-4-carboxylic acid], `O=C(O)C1CN(C2CCc3cc(C4CN(c5cccc(F)c5)C4)ccc32)C1` (single isomer, unassigned) [Compound 8a, 1-(5-(1-(3-fluorophenyl)azetidin-3-yl)-2,3-dihydro-1H-inden-1-yl)azetidine-3-carboxylic acid] is lower in pEC50: 6.00 to 7.00 for the first, 5.00 to 6.00 for the second. The first is the more potent here.

First: O=C(O)C1CCN(C2CCc3cc(C4CN(c5cccc(F)c5)C4)ccc32)CC1 (single isomer, unassigned) [Compound 3b, 1-(5-(1-(3-fluorophenyl)azetidin-3-yl)-2,3-dihydro-1H-inden-1-yl)piperidine-4-carboxylic acid]
Second: O=C(O)C1CN(C2CCc3cc(C4CN(c5cccc(F)c5)C4)ccc32)C1 (single isomer, unassigned) [Compound 8b, 1-(5-(1-(3-fluorophenyl)azetidin-3-yl)-2,3-dihydro-1H-inden-1-yl)azetidine-3-carboxylic acid]
The pEC50 of the first is lower: 5.00 to 6.00 for the first, 6.00 to 7.00 for the second.

`O=C(O)C1CCN(C2CCc3cc(C4CN(c5ccccc5F)C4)ccc32)CC1` (single isomer, unassigned) [Compound 4a, 1-(5-(1-(2-fluorophenyl)azetidin-3-yl)-2,3-dihydro-1H-inden-1-yl)piperidine-4-carboxylic acid] and `O=C(O)C1CCN(C2CCc3cc(N4CC(c5ccccc5F)C4)ccc32)CC1` (single isomer, unassigned) [Compound 10a, 1-(5-(3-(2-fluorophenyl)azetidin-1-yl)-2,3-dihydro-1H-inden-1-yl)piperidine-4-carboxylic acid] fall in the same range of pEC50: 7.00 to 8.00 for the first, 7.00 to 8.00 for the second.

`O=C(O)C1CCN(C2CCc3cc(C4CN(c5ccccc5F)C4)ccc32)CC1` (single isomer, unassigned) [Compound 4b, 1-(5-(1-(2-fluorophenyl)azetidin-3-yl)-2,3-dihydro-1H-inden-1-yl)piperidine-4-carboxylic acid] and `O=C(O)C1CCN(C2CCc3cc(N4CC(c5ccccc5F)C4)ccc32)CC1` (single isomer, unassigned) [Compound 10b, 1-(5-(3-(2-fluorophenyl)azetidin-1-yl)-2,3-dihydro-1H-inden-1-yl)piperidine-4-carboxylic acid] fall in the same range of pEC50: 5.00 to 6.00 for the first, 5.00 to 6.00 for the second.

`O=C(O)C1CCN(C2CCc3cc(N4CC(c5c(F)cccc5F)C4)ccc32)CC1` (single isomer, unassigned) [Compound 9b, 1-(5-(3-(2,6-difluorophenyl)azetidin-1-yl)-2,3-dihydro-1H-inden-1-yl)piperidine-4-carboxylic acid] and `O=C(O)C1CCN(Cc2ccc(C3CN(c4c(F)cccc4F)C3)cc2)CC1` [Compound 14, 1-(4-(1-(2,6-difluorophenyl)azetidin-3-yl)benzyl)piperidine-4-carboxylic acid] fall in the same range of pEC50: 6.00 to 7.00 for the first, 6.00 to 7.00 for the second.

`Cc1cc(C2CN(c3c(Cl)cccc3Cl)C2)ccc1C(C)N1CCC(C(=O)O)CC1` (single isomer, unassigned) [Compound 16a, 1-(1-(4-(1-(2,6-dichlorophenyl)azetidin-3-yl)-2-methylphenyl)ethyl)piperidine-4-carboxylic acid] and `Cc1cc(C2CN(c3c(Cl)cccc3Cl)C2)cc(C)c1CN1CCC(C(=O)O)CC1` [Compound 15, 1-(4-(1-(2,6-dichlorophenyl)azetidin-3-yl)-2,6-dimethylbenzyl)piperidine-4-carboxylic acid] cannot be ordered by pEC50: 7.00 to 8.00 for the first, at least 8.00 for the second.

`Cc1cc(C2CN(c3c(Cl)cccc3Cl)C2)ccc1C(C)N1CCC(C(=O)O)CC1` (single isomer, unassigned) [Compound 16b, 1-(1-(4-(1-(2,6-dichlorophenyl)azetidin-3-yl)-2-methylphenyl)-ethyl)piperidine-4-carboxylic acid] and `O=C(O)C1CCN(Cc2ccc(C3CN(c4c(Cl)cccc4Cl)C3)cc2)CC1` [Compound 11, 1-(4-(1-(2,6-dichlorophenyl)azetidin-3-yl)benzyl)piperidine-4-carboxylic acid] cannot be ordered by pEC50: at least 8.00 for the first, 7.00 to 8.00 for the second.

`O=C(O)[C@H]1CCN(Cc2ccc(C3CN(c4c(Cl)cccc4Cl)C3)cc2)C1` [Compound 12a, (S)-1-(4-(1-(2,6-dichlorophenyl)azetidin-3-yl)benzyl)pyrrolidine-3-carboxylic acid] and `O=C(O)[C@@H]1CCN(Cc2ccc(C3CN(c4c(Cl)cccc4Cl)C3)cc2)C1` [Compound 12b, (R)-1-(4-(1-(2,6-dichlorophenyl)azetidin-3-yl)benzyl)pyrrolidine-3-carboxylic acid] cannot be ordered by pEC50: 7.00 to 8.00 for the first, at least 8.00 for the second.

`O=C(O)C1CN(Cc2ccc(C3CN(c4c(Cl)cccc4Cl)C3)cc2)C1` [Compound 13, 1-(4-(1-(2,6-dichlorophenyl)azetidin-3-yl)benzyl)azetidine-3-carboxylic acid] and `CC(C)(c1ccc(C2CN(c3c(Cl)cccc3Cl)C2)cc1)N1CCC(C(=O)O)CC1` [Compound 17, 1-(2-(4-(1-(2,6-dichlorophenyl)azetidin-3-yl)phenyl)propan-2-yl)piperidine-4-carboxylic acid] cannot be ordered by pEC50: at least 8.00 for the first, at least 8.00 for the second.

With `O=C(O)C1CCN(Cc2ccc(C3CN(c4c(Cl)cccc4Cl)C3)cn2)CC1` [Compound 18, 1-((5-(1-(2,6-dichlorophenyl)azetidin-3-yl)pyridin-2-yl)methyl)piperidine-4-carboxylic acid] the pEC50 was 6.00 to 7.00.
